The values below come from US10988462B2, “Pyrazole compounds substituted with heteroaryl and pharmaceutical use thereof” (Japan Tobacco Inc., priority 2018, dated 2021).

The structures appear in SMILES notation.

Sequence of human SGLT1 (P13866 whole entry): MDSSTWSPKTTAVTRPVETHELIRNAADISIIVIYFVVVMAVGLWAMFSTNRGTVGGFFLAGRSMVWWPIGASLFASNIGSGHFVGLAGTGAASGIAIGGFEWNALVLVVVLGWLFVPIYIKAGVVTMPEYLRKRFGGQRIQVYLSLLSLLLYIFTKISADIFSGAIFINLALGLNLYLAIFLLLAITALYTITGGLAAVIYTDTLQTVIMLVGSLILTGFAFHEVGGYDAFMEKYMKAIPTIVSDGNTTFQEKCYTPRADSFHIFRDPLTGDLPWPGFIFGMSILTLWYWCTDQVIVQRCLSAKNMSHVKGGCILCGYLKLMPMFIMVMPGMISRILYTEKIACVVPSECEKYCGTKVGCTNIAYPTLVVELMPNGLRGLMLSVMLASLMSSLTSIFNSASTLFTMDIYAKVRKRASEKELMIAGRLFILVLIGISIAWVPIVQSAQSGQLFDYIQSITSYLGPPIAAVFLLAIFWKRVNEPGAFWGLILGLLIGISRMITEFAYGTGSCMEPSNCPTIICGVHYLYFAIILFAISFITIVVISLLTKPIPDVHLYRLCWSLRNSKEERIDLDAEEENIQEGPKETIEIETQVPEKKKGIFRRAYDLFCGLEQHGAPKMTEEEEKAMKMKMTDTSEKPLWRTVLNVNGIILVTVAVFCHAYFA

One data set addresses human SGLT1 (Homo sapiens (Human), UniProt P13866). Kind of data set: SGLT1 inhibitory activity: intracellular uptake of 14C-AMG in human SGLT1-stably-expressing CHO-K1 cell line. The data set is classed as cell-based. As to conditions: human SGLT1-stably-expressing CHO-K1 cells, 14C-AMG uptake; read-out: hSGLT1 IC50. The method, then: SGLT1 inhibitory activities of test compounds (IC50 values) were calculated based on the amount of intracellular uptake of labelled α-methyl-D-glucopyranoside (^14C-AMG) transported by SGLT1.
1) Formation of Human SGLT1-Expressing Plasmid
A DNA fragment containing human SGLT1 was amplified by PCR (Polymerase Chain Reaction) using pCMV6-hSGLT1 (OriGene) as a template. In the human SGLT1, NheI recognition and cleavage sequence was added to the upstream of Kozac consensus sequence derived from a vector, and a stop codon, TAG, and SalI recognition and cleavage sequence were added to the immediate downstream of the protein-translating region of human SGLT1. The purified DNA fragment was cleaved by restriction enzymes NheI and SalI, followed by ligation with pcDNA3.1 (+) which was cleaved by NheI and XhoI, thereby forming human SGLT1-expressing plasmid, pcDNA-hSGLT1. The nucleic acid sequence of human SGLT1 inserted into a vector was completely identical to the protein-translated region of human SGLT1 sequence (Accession number NM_000343) registered in GenBank, and the sequence of the portion connected to the vector was as expected.
2) Establishment of Human SGLT1-Stably-Expressing Cell Lines
Human SGLT-expressing plasmid, pcDNA-hSGLT1, was transfected into each CHO-K1 cell by Lipofectamine 2000 (Invitrogen) and cultured in the presence of G418 (Nacalai Tesque) to select drug-resistant cell lines. A cell line having the highest ratio (S/B ratio) of the amount of intracellular uptake of ^14C-AMG per cell to the amount of intracellular uptake of ^14C-AMG after treatment with a SGLT inhibitor, phlorizin, was selected as a human SGLT1-stably-expressing cell line from the drug-resistant cell lines.
3) Assessment of SGLT1 Inhibitory Activity
Human SGLT1-stably-expressing cell lines were seeded at 5×10^4 cells/well on BioCoat™ Poly-D-Lysine 96 well plate with Lid (Becton, Dickinson and Company) and cultured at 37° C. under 5% CO2 overnight. The medium was replaced with 100 μL/well of Na(−) buffer (140 mM choline chloride, 2 mM KCl, 1 mM MgCl2, 1 mM CaCl2, 10 mM HEPES, 5 mM Tris, pH 7.4), and then the mixture was let stand at 37° C. under 5% CO2 for 20 minutes. After removal of Na(−) buffer, thereto was added 40 μL/well of a test compound solution prepared with Na(+) buffer (140 mM NaCl, 2 mM KCl, 1 mM MgCl2, 1 mM CaCl2, 10 mM HEPES, 5 mM Tris, pH 7.4) comprising BSA. Then, thereto was added 40 μL/well of Na(+) buffer comprising 8 kBq of ^14C-AMG and 2 mM AMG, and the mixture was mixed well. For a blank, 40 μL/well of Na(−) buffer comprising BSA was added, and in addition, 40 μL/well of Na(−) buffer comprising 8 kBq of ^14C-AMG and 2 mM AMG was added, and the mixture was mixed well. After incubation by being let stand for 1 hour at 37° C. under 5% CO2, cells were washed twice with 100 μL/well of ice-cooled wash buffer (100 mM AMG, 140 mM choline chloride, 2 mM KCl, 1 mM MgCl2, 1 mM CaCl2, 10 mM HEPES, 5 mM Tris, pH 7.4) to terminate the reaction. A cell lysate was prepared by addition of 50 μL/well of 0.2N aqueous NaOH solution. In the assessment for the uptake ability of ^14C-AMG, the total amount of the cell lysate was transferred to OptiPlate 96 (Perkin-Elmer) with 100 μL/well of MicroScint-40 (Perkin-Elmer) dispensed and ^14C of CPM was measured with TOPCOUNT NXT (Perkin-Elmer).
Data was calculated by deducting the average value of CPM for blank well from the average value of CPM for each well treated. An inhibition rate for each test compound in each concentration was calculated from the following equation: [(A−B)/A]×100 wherein A is data for a solvent control and B is data for treatment with each test compound.
For `Cc1ncc(-n2nc(NC(=O)[C@H]3CNC(=O)[C@@H]3C)cc2-c2cc(F)cc(OC(C)(C)C(F)(F)F)c2)cn1` [Example 38], the IC50 (usually the concentration that inhibits the measured activity by half) was determined as 4 nM.

Take `C[C@H]1C(=O)NC[C@@H]1C(=O)Nc1cc(-c2cccc(OC(F)(F)F)c2)n(-c2cncc(C(F)(F)F)c2)n1` [Example 7]: the IC50 is 17 nM.

On to `COc1ncc(-n2nc(NC(=O)[C@H]3CNC(=O)[C@@H]3C)cc2-c2cc(F)cc(OC(C)(C)C(F)(F)F)c2)cn1` [Example 36], for which the 50% inhibitory concentration (IC50) is 1.9 nM.

For `C[C@H]1C(=O)NC[C@@H]1C(=O)Nc1cc(-c2cc(F)cc(OCC(F)(F)F)c2)n(-c2cncc(C(F)(F)F)c2)n1` [Example 31], the IC50 amounted to 5.7 nM.

On to `C[C@H]1C(=O)NC[C@@H]1C(=O)Nc1cc(-c2cc(F)cc(OC(C)(C)C(F)(F)F)c2)n(-c2cncc(C(F)(F)F)n2)n1` [Example 18], for which the IC50 stood at 29 nM.

For the compound `C[C@H]1C(=O)NC[C@@H]1C(=O)Nc1cc(-c2cccc(OC(F)(F)F)c2)n(-c2cnc(C(F)(F)F)nc2)n1` [Example 26], the IC50 came out at 47 nM.

With `C[C@H]1C(=O)NC[C@@H]1C(=O)Nc1cc(-c2cccc(OC(F)(F)F)c2)n(-c2cncc(Cl)c2)n1` [Example 6], the 50% inhibitory concentration (IC50) turned out to be 9 nM.

Take `C[C@H]1C(=O)NC[C@@H]1C(=O)Nc1cc(-c2cc(F)cc(OC(C)(C)C(F)(F)F)c2)n(-c2cnccc2C#N)n1` [Example 14]: the IC50 came out at 3.7 nM.

With `C[C@H]1C(=O)NC[C@@H]1C(=O)Nc1cc(-c2cc(F)cc(OC(C)(C)C(F)(F)F)c2)n(-c2cccnc2C#N)n1` [Example 11], the IC50 turned out to be 8.4 nM.

On to `C[C@H]1C(=O)NC[C@@H]1C(=O)Nc1cc(-c2cc(F)cc(OC(C)(C)C(F)(F)F)c2)n(-c2ccc(C(F)(F)F)nc2)n1` [Example 20], for which the IC50 turned out to be 1.2 nM.

For `C[C@H]1C(=O)NC[C@@H]1C(=O)Nc1cc(-c2cc(F)cc(OCC(F)(F)F)c2)n(-c2cncnc2)n1` [Example 32], the IC50 stood at 69 nM.

As for `C[C@H]1C(=O)NC[C@@H]1C(=O)Nc1cc(-c2cc(F)cc(OC(F)(F)F)c2)n(-c2cncc(Cl)c2)n1` [Example 30], the IC50 was 2.7 nM.

As to `C[C@H]1C(=O)NC[C@@H]1C(=O)Nc1cc(-c2cc(F)cc(OC(F)(F)F)c2)n(-c2cncc(C(F)(F)F)c2)n1` [Example 3], the IC50 was found to be 8.6 nM.

On to `C[C@H]1C(=O)NC[C@@H]1C(=O)Nc1cc(-c2cc(F)cc(OC(C)(C)C(F)(F)F)c2)n(-c2cnc(C(F)(F)F)nc2)n1` [Example 1, (3R,4R)—N-(5-(3-fluoro-5-((1,1,1-trifluoro-2-methylpropan-2-yl)oxy)phenyl)-1-(2-(trifluoromethyl)pyrimidin-5-yl)-1H-pyrazol-3-yl)-4-methyl-5-oxopyrrolidine-3-carboxamide], for which the IC50 was 1.9 nM.

In the case of `C[C@H]1C(=O)NC[C@@H]1C(=O)Nc1cc(-c2cc(F)cc(OC(C)(C)C(F)(F)F)c2)n(-c2cncc(C(F)(F)F)c2)n1` [Example 10], the 50% inhibitory concentration (IC50) is 1.2 nM.

As to `C[C@H]1C(=O)NC[C@@H]1C(=O)Nc1cc(-c2cccc(OC(F)(F)F)c2)n(-c2cncc(F)c2)n1` [Example 5], the IC50 was found to be 22 nM.

As to `C[C@H]1C(=O)NC[C@@H]1C(=O)Nc1cc(-c2cc(F)cc(OC(C)(C)C(F)(F)F)c2)n(-c2cncnc2)n1` [Example 22], the IC50 was 3.4 nM.

Regarding `C[C@H]1C(=O)NC[C@@H]1C(=O)Nc1cc(-c2cc(F)cc(OC(F)(F)F)c2)n(-c2ccc(C(F)(F)F)nc2)n1` [Example 28], the IC50 is 7.2 nM.

As for `C[C@H]1C(=O)NC[C@@H]1C(=O)Nc1cc(-c2cc(F)cc(OC(C)(C)C(F)(F)F)c2)n(-c2cnccc2C(F)(F)F)n1` [Example 13], the IC50 stood at 2.9 nM.

As for `C[C@H]1C(=O)NC[C@@H]1C(=O)Nc1cc(-c2cc(F)cc(OC(C)(C)C(F)(F)F)c2)n(-c2cnc(C(F)(F)F)cn2)n1` [Example 15], the IC50 worked out at 6.1 nM.

The next data set has as its system Escherichia coli WP2uvrA. Put plainly: Ames test (reverse mutation test), pre-incubation method, strain WP2uvrA. It is filed as cell-based. As to conditions: positive control; S9 mix −; dose 0.01 μg/plate. An excerpt: Ames Test (Reverse Mutation Test)
Two plates per treatment were used.
On to `NC(=O)C(=Cc1ccc([N+](=O)[O-])o1)c1ccco1` [AF-2, 2-(2-Furyl)-3-(5-nitro-2-furyl)acrylamide, reference compound], for which the “Number of revertant colonies WP2uvrA” value was determined as 154.
